Each block holds one molecule with its values, some of them ahead of it.
What was measured:
[1] = target: T1, ATP-binding cassette sub-family C member 3 (Homo sapiens, UniProt O15438); experiment: Activity at MRP3 (unknown origin) expressed in baculovirus-infected HEK293 cells assessed as drug transport at 400 uM after 10 mins by reversed-phase HPLC analysis in presence of ATP; format: ADME; conditions: hek293, 10 min, BLD = below limit of detection
[2] = target: T2, Multidrug resistance-associated protein 1 (Homo sapiens, UniProt P33527); experiment: Activity at MRP1 (unknown origin) expressed in baculovirus-infected HEK293 cells assessed as drug transport at 400 uM after 10 mins by reversed-phase HPLC analysis in presence of ATP; format: ADME; conditions: hek293, 10 min, BLD = below limit of detection
[3] = target: T3, ATP-binding cassette sub-family C member 4 (Homo sapiens, UniProt O15439); experiment: Activity at MRP4 (unknown origin) expressed in baculovirus-infected HEK293 cells assessed as drug transport at 400 uM after 10 mins by reversed-phase HPLC analysis in presence of ATP; format: ADME; conditions: hek293, 10 min, BLD = below limit of detection
T3 sequence (O15439 whole entry): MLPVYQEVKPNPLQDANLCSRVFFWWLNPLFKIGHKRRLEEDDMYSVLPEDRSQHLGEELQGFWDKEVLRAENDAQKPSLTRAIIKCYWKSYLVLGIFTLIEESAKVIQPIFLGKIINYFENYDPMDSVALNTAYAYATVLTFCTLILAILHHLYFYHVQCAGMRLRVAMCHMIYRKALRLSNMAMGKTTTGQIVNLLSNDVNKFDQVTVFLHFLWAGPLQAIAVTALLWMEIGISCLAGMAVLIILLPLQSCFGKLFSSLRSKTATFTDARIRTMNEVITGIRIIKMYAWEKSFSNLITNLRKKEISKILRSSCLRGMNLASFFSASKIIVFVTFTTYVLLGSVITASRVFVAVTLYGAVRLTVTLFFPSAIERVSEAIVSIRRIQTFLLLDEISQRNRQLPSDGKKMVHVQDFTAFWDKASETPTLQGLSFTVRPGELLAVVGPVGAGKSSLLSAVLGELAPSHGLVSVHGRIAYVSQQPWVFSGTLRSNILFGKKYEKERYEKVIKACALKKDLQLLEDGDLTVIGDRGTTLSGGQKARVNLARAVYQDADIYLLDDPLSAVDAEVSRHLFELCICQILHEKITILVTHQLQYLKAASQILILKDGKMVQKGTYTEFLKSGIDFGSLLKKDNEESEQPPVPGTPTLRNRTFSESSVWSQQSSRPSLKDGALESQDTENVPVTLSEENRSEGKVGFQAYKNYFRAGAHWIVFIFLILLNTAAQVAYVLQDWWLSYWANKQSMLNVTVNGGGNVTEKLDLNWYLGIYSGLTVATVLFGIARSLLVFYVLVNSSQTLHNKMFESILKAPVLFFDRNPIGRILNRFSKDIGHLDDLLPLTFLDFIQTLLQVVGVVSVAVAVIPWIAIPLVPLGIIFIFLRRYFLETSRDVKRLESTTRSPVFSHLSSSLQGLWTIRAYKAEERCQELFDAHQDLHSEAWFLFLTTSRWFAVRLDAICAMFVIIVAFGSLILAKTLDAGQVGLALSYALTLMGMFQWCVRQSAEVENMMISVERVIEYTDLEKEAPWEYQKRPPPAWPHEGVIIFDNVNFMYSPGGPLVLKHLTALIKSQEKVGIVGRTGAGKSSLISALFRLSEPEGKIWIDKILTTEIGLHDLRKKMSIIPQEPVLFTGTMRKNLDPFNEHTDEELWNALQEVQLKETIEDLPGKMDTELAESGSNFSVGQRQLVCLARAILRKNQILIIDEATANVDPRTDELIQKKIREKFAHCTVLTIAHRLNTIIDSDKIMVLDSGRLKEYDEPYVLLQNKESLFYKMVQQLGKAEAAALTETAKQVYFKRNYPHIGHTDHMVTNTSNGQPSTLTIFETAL

[4] = target: T4, ATP-binding cassette sub-family C member 2 (Homo sapiens, UniProt Q92887); experiment: Activity at MRP2 (unknown origin) expressed in baculovirus-infected HEK293 cells assessed as drug transport at 400 uM after 10 mins by reversed-phase HPLC analysis in presence of ATP; format: ADME; conditions: hek293, 10 min, BLD = below limit of detection
[5] = target: T5, Broad substrate specificity ATP-binding cassette transporter ABCG2 (Homo sapiens, UniProt Q9UNQ0); experiment: Activity at BCRP (unknown origin) expressed in baculovirus-infected HEK293 cells assessed as drug transport at 400 uM after 10 mins by reversed-phase HPLC analysis in presence of ATP; format: ADME; conditions: hek293, 10 min, BLD = below limit of detection
T5 sequence (Q9UNQ0 whole entry): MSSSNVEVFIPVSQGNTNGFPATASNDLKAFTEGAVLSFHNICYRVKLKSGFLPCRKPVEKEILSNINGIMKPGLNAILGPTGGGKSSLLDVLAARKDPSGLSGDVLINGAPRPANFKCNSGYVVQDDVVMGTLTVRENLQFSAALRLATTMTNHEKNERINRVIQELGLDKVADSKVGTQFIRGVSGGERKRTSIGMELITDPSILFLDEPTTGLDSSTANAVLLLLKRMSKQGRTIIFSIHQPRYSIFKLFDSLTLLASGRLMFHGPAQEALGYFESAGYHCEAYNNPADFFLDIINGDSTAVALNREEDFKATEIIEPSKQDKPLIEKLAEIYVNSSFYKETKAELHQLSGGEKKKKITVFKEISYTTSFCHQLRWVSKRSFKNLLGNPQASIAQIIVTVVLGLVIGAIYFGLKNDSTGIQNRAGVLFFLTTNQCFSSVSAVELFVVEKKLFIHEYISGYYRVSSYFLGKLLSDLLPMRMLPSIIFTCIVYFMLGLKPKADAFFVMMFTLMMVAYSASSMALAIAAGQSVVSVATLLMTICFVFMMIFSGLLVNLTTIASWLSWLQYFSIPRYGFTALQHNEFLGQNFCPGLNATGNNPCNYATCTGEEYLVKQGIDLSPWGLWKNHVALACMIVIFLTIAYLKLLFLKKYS

[6] = Activity at P-gp (unknown origin) expressed in baculovirus-infected HEK293 cells assessed as drug transport at 400 uM after 10 mins by reversed-phase HPLC analysis in presence of ATP; format: ADME; conditions: human, hek293, 10 min
[7] = target: T4, ATP-binding cassette sub-family C member 2; experiment: Activity at MRP2 (unknown origin) expressed in baculovirus-infected HEK293 cells assessed as drug transport at 400 uM after 10 mins by reversed-phase HPLC analysis in presence of AMP; format: ADME; conditions: hek293, 10 min, BLD = below limit of detection
[8] = Activity at P-gp (unknown origin) expressed in baculovirus-infected HEK293 cells assessed as drug transport at 400 uM after 10 mins by reversed-phase HPLC analysis in presence of AMP; format: ADME; conditions: human, hek293, 10 min, BLD = below limit of detection
[9] = target: T2, Multidrug resistance-associated protein 1; experiment: Activity at MRP1 (unknown origin) expressed in baculovirus-infected HEK293 cells assessed as drug transport at 400 uM after 10 mins by reversed-phase HPLC analysis in presence of AMP; format: ADME; conditions: hek293, 10 min, BLD = below limit of detection
[10] = target: T5, Broad substrate specificity ATP-binding cassette transporter ABCG2; experiment: Activity at BCRP (unknown origin) expressed in baculovirus-infected HEK293 cells assessed as drug transport at 400 uM after 10 mins by reversed-phase HPLC analysis in presence of AMP; format: ADME; conditions: hek293, 10 min, BLD = below limit of detection
[11] = target: T3, ATP-binding cassette sub-family C member 4; experiment: Activity at MRP4 (unknown origin) expressed in baculovirus-infected HEK293 cells assessed as drug transport at 400 uM after 10 mins by reversed-phase HPLC analysis in presence of AMP; format: ADME; conditions: hek293, 10 min, BLD = below limit of detection
[12] = target: T1, ATP-binding cassette sub-family C member 3; experiment: Activity at MRP3 (unknown origin) expressed in baculovirus-infected HEK293 cells assessed as drug transport at 400 uM after 10 mins by reversed-phase HPLC analysis in presence of AMP; format: ADME; conditions: hek293, 10 min, BLD = below limit of detection
[13] = substrate: O=C(O)[C@H]1O[C@@H](Oc2ccc3ccc(=O)oc3c2)[C@H](O)[C@@H](O)[C@@H]1O; experiment: Activity at MRP4 (unknown origin) expressed in baculovirus-infected HEK293 cells assessed as drug transport after 10 mins by Michaelis-Menten plot analysis; format: ADME, Homo sapiens
[14] = substrate: O=C(O)[C@H]1O[C@@H](Oc2ccc3ccc(=O)oc3c2)[C@H](O)[C@@H](O)[C@@H]1O; experiment: Activity at MRP3 (unknown origin) expressed in baculovirus-infected HEK293 cells assessed as drug transport after 10 mins by Michaelis-Menten plot analysis; format: ADME, Homo sapiens

T2 sequence (P33527 whole entry): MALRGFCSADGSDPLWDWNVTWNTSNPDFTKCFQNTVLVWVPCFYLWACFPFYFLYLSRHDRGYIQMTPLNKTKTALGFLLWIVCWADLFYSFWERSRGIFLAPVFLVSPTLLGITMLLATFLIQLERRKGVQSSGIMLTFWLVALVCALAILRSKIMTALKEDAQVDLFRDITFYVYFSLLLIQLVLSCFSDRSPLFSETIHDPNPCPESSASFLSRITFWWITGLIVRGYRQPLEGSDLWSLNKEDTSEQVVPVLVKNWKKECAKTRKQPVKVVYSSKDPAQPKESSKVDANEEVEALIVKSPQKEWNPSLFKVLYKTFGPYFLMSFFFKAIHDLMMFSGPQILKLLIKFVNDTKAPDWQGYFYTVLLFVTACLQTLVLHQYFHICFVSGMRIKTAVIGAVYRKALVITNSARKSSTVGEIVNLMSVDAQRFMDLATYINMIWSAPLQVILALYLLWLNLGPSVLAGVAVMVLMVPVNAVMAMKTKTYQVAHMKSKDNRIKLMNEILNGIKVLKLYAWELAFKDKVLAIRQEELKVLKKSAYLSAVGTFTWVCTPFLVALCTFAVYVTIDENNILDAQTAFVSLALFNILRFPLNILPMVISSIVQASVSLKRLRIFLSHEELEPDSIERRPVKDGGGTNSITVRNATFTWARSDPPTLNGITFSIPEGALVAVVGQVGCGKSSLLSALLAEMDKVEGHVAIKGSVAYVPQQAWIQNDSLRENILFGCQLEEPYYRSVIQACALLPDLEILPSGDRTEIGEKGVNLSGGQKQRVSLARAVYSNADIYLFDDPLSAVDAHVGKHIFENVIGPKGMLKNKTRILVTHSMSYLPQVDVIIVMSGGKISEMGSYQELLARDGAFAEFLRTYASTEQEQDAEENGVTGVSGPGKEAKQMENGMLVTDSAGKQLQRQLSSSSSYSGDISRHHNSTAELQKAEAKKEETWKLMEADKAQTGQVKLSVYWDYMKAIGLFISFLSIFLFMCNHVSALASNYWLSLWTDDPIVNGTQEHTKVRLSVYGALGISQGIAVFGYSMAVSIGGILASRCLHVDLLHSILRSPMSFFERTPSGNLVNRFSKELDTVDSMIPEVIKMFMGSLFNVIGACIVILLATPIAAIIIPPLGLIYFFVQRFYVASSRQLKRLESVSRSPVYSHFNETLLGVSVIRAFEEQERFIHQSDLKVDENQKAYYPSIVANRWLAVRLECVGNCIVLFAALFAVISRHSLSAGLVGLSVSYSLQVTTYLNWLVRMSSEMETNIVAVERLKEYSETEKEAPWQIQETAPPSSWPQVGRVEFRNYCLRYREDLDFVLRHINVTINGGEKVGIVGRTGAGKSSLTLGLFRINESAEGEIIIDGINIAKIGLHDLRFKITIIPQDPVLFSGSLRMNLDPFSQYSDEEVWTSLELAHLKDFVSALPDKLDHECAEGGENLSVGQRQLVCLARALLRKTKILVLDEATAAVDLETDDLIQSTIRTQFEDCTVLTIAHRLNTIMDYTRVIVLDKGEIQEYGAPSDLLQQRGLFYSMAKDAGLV
T4 sequence (Q92887 whole entry): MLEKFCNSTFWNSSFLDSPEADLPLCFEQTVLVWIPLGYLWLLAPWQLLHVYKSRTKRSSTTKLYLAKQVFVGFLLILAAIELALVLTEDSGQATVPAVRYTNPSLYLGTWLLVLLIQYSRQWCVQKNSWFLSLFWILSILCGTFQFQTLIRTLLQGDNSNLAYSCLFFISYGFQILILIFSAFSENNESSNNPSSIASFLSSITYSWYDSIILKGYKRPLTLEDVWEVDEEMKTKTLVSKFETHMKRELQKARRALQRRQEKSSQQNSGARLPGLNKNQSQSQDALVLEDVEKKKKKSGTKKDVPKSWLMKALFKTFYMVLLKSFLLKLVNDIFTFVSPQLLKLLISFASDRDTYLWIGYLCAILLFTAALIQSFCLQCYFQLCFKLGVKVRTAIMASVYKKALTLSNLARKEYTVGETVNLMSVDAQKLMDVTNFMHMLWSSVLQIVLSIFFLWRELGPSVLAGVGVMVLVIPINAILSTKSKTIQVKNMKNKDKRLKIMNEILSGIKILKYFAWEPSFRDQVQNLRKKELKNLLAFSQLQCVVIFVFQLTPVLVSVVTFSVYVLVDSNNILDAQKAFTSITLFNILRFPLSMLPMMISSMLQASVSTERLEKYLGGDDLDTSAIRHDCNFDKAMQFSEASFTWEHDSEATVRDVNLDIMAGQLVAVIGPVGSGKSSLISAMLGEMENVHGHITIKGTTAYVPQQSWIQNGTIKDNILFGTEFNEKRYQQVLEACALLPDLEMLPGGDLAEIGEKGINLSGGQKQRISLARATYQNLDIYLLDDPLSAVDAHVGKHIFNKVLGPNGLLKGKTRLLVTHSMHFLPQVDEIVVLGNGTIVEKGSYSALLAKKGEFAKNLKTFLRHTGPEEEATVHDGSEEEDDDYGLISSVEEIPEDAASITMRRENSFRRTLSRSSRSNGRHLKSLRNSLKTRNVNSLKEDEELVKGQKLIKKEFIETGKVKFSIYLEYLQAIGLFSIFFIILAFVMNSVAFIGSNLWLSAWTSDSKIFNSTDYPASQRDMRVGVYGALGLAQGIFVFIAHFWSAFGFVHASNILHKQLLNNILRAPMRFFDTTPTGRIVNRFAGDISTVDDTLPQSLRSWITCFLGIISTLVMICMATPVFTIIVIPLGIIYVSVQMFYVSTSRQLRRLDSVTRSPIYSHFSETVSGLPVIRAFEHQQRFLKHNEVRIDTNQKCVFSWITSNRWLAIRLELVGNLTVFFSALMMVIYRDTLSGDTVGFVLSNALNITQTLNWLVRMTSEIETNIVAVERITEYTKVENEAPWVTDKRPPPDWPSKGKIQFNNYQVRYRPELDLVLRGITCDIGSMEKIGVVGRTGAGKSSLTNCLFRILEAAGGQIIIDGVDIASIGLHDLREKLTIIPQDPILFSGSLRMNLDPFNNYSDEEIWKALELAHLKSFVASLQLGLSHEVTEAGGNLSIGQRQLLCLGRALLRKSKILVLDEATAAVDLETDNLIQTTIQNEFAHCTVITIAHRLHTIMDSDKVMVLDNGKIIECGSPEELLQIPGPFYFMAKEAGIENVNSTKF

Drug transport [1]: BLD | Drug transport [2]: BLD | Drug transport [3]: BLD | Drug transport [4]: BLD | Drug transport [5]: BLD | Drug transport ([6]; BLD = below limit of detection): BLD
Molecule: O=c1ccc2ccc(O)cc2o1 [UMBELLIFERONE]

Drug transport [7]: BLD | Drug transport [8]: BLD | Drug transport [6]: Not Active | Drug transport [9]: BLD | Drug transport [10]: BLD | Drug transport [11]: BLD | Drug transport [12]: BLD
Molecule: O=C(O)[C@H]1O[C@@H](Oc2ccc3ccc(=O)oc3c2)[C@H](O)[C@@H](O)[C@@H]1O

B1: ATP-binding cassette sub-family C member 4 (Homo sapiens) (protein)
chain: T3 sequence (O15439 whole entry)
Km [13]: 63 µM | Vmax [13]: 0.00092 µmol/min/mg

B2: ATP-binding cassette sub-family C member 3 (Homo sapiens) (protein)
chain: MDALCGSGELGSKFWDSNLSVHTENPDLTPCFQNSLLAWVPCIYLWVALPCYLLYLRHHCRGYIILSHLSKLKMVLGVLLWCVSWADLFYSFHGLVHGRAPAPVFFVTPLVVGVTMLLATLLIQYERLQGVQSSGVLIIFWFLCVVCAIVPFRSKILLAKAEGEISDPFRFTTFYIHFALVLSALILACFREKPPFFSAKNVDPNPYPETSAGFLSRLFFWWFTKMAIYGYRHPLEEKDLWSLKEEDRSQMVVQQLLEAWRKQEKQTARHKASAAPGKNASGEDEVLLGARPRPRKPSFLKALLATFGSSFLISACFKLIQDLLSFINPQLLSILIRFISNPMAPSWWGFLVAGLMFLCSMMQSLILQHYYHYIFVTGVKFRTGIMGVIYRKALVITNSVKRASTVGEIVNLMSVDAQRFMDLAPFLNLLWSAPLQIILAIYFLWQNLGPSVLAGVAFMVLLIPLNGAVAVKMRAFQVKQMKLKDSRIKLMSEILNGIKVLKLYAWEPSFLKQVEGIRQGELQLLRTAAYLHTTTTFTWMCSPFLVTLITLWVYVYVDPNNVLDAEKAFVSVSLFNILRLPLNMLPQLISNLTQASVSLKRIQQFLSQEELDPQSVERKTISPGYAITIHSGTFTWAQDLPPTLHSLDIQVPKGALVAVVGPVGCGKSSLVSALLGEMEKLEGKVHMKGSVAYVPQQAWIQNCTLQENVLFGKALNPKRYQQTLEACALLADLEMLPGGDQTEIGEKGINLSGGQRQRVSLARAVYSDADIFLLDDPLSAVDSHVAKHIFDHVIGPEGVLAGKTRVLVTHGISFLPQTDFIIVLADGQVSEMGPYPALLQRNGSFANFLCNYAPDEDQGHLEDSWTALEGAEDKEALLIEDTLSNHTDLTDNDPVTYVVQKQFMRQLSALSSDGEGQGRPVPRRHLGPSEKVQVTEAKADGALTQEEKAAIGTVELSVFWDYAKAVGLCTTLAICLLYVGQSAAAIGANVWLSAWTNDAMADSRQNNTSLRLGVYAALGILQGFLVMLAAMAMAAGGIQAARVLHQALLHNKIRSPQSFFDTTPSGRILNCFSKDIYVVDEVLAPVILMLLNSFFNAISTLVVIMASTPLFTVVILPLAVLYTLVQRFYAATSRQLKRLESVSRSPIYSHFSETVTGASVIRAYNRSRDFEIISDTKVDANQRSCYPYIISNRWLSIGVEFVGNCVVLFAALFAVIGRSSLNPGLVGLSVSYSLQVTFALNWMIRMMSDLESNIVAVERVKEYSKTETEAPWVVEGSRPPEGWPPRGEVEFRNYSVRYRPGLDLVLRDLSLHVHGGEKVGIVGRTGAGKSSMTLCLFRILEAAKGEIRIDGLNVADIGLHDLRSQLTIIPQDPILFSGTLRMNLDPFGSYSEEDIWWALELSHLHTFVSSQPAGLDFQCSEGGENLSVGQRQLVCLARALLRKSRILVLDEATAAIDLETDNLIQATIRTQFDTCTVLTIAHRLNTIMDYTRVLVLDKGVVAEFDSPANLIAARGIFYGMARDAGLA
Km [14]: 187 µM | Vmax [14]: 0.00046 µmol/min/mg
